Data on 58 molecules can be found in ChEMBL document CHEMBL1240490, “Novel carbamates as orally active acetylcholinesterase inhibitors found to improve scopolamine-induced cognition impairment: pharmacophore-based virtual screening, synthesis, and pharmacology” (J Med Chem, 2010).

Structures are written as SMILES. Calls of active or inactive are those of the source. No cut-off for these calls is given here.

For orientation: IC50 means the point on the concentration scale where inhibition reaches its midpoint.

For assay [1], the target named is T1, Acetylcholinesterase (Homo sapiens, UniProt P22303).
T1 sequence (P22303 whole entry): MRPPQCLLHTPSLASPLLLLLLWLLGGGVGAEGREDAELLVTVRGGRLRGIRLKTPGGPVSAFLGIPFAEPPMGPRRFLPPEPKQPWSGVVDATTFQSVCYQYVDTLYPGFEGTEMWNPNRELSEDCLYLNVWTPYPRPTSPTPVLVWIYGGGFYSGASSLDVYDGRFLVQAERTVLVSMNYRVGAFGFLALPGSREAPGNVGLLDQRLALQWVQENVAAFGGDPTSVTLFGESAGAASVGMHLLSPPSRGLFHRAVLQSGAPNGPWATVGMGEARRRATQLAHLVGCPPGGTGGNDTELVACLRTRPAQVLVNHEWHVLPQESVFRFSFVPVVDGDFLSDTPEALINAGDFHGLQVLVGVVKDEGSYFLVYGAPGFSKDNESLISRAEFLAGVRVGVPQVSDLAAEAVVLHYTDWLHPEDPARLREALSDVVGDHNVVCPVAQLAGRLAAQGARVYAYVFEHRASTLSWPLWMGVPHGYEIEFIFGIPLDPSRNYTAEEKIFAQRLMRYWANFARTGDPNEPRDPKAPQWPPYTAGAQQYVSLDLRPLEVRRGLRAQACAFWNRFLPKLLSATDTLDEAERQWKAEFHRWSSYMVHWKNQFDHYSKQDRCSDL
Description: (§1) Inhibition of human AChE by Ellmans test
The target of assay [2] is T1, Acetylcholinesterase. This is another data set of the same source.
Description: as §1
The next assay deals with Caenorhabditis elegans. Description: Inhibition of ACh release in Caenorhabditis elegans N2 N2. The class given is functional, organism-based.

On Acetylcholinesterase [1], `Cc1ccccc1NC(=O)Oc1ccc2c(c1)C1(C)COC(C1)O2` (stereo not drawn) returned a logIC50 of 1.75.

`O=C(Nc1ccccc1Cl)Oc1ccc2c(c1)CCCN2Cc1ccccc1` registered an IC50 on Acetylcholinesterase [2] of 3310 nM.

As for `Cc1cc(C)cc(NC(=O)Oc2ccc3c(c2)[C@]2(C)CCN(C)[C@@H]2N3C)c1`, at Acetylcholinesterase [1], the logIC50 is 1.89.

`CN1CC[C@]2(C)c3cc(OC(=O)Nc4ccccc4)ccc3N(C)C12` (stereo partly drawn): at Acetylcholinesterase [1], the logIC50 is 3.54.

`Cc1ccccc1NC(=O)Oc1ccc2c(c1)[C@]1(C)CCN(C)[C@@H]1N2C` [TOLSERINE] had an IC50 against Acetylcholinesterase [2] of 40 nM. This molecule displayed a logIC50 at Acetylcholinesterase [1] of 1.

In turn, `CN1CC[C@@]2(C)c3cc(OC(=O)Nc4ccccc4)ccc3N(C=O)[C@@H]12` showed an IC50 against Acetylcholinesterase [2] of 330 nM. At Acetylcholinesterase [1], the logIC50 turned out to be 2.52.

Consider `CNC(=O)Oc1ccc2c(c1)OC[C@@H]1CCN(C)[C@H]21`, for which half-maximal inhibition on Acetylcholinesterase [2] (IC50) required 30 nM. In other words, the double-digit nanomolar range.

As to `Cc1ccccc1NC(=O)Oc1ccc2c(c1)[C@]1(C)CCN(C)[C@@H]1N2`, the IC50 on Acetylcholinesterase [2] stood at 40 nM. In addition, on Acetylcholinesterase [1], the logIC50 was determined as 1.6.

Turning to `CNC(=O)Oc1ccc2c(c1)[C@]1(C)CCN(C)[C@@H]1N2`, inhibition against Acetylcholinesterase [2] was half-maximal at 56.7 nM (IC50). The molecule also yielded a logIC50 on Acetylcholinesterase [1] of 1.75.

On to `CC(C)c1ccc(NC(=O)Oc2ccc3c(c2)[C@]2(C)CCNC2N3C)cc1` (stereo partly drawn), for which, on Acetylcholinesterase [1], the logIC50 was 2.51.

In the case of `Cc1ccccc1NC(=O)Oc1ccc2c(c1)[C@]1(C)CCN(Cc3ccccc3)C1N2Cc1ccccc1` (stereo partly drawn), the logIC50 at Acetylcholinesterase [1] was found to be 3.25.

`Cc1ccccc1NC(=O)Oc1ccc2c(c1)[C@]1(C)CCN[C@@H]1N2` gave a half-inhibitory concentration (IC50) against Acetylcholinesterase [2] of 830 nM. This molecule gave a logIC50 at Acetylcholinesterase [1] of 2.92.

With `CC(C)c1ccccc1NC(=O)Oc1ccc2c(c1)[C@]1(C)CCN(C)[C@@H]1N2C`, at Acetylcholinesterase [1], the logIC50 was 1.18.

Molecule `CNC(=O)Oc1ccc2c(c1)[C@]1(C)CCNC1N2` (stereo partly drawn) yielded a logIC50 at Acetylcholinesterase [1] of 3.17.

`CNC(=O)Oc1ccc2c(c1)SC[C@@H]1CCN(C)[C@H]21` displayed an IC50 on Acetylcholinesterase [2] of 8.11 nM.

As to `CCCCCCNC(=O)Oc1ccc2c(c1)CCCN2Cc1ccccc1`, the inhibition result with Caenorhabditis elegans is “Active”.

At Acetylcholinesterase [2], `CNC(=O)Oc1ccc2c(c1)c(C)cn2Nc1ccncc1F` gave a half-maximal inhibitory concentration (IC50) of 100 nM.

`Cc1ccccc1NC(=O)Oc1ccc2c(c1)[C@]1(C)CCN(CCc3ccccc3)C1N2C` (stereo partly drawn) gave a logIC50 on Acetylcholinesterase [1] of 2.74.

`CNC(=O)Oc1ccc2c(c1)CC[C@@H]1CCN(C)[C@H]21` had a concentration for half-maximal inhibition (IC50) on Acetylcholinesterase [2] of 17.3 nM.

`CC(C)c1ccc(NC(=O)Oc2ccc3c(c2)[C@]2(C)CCN(C)C2N3)cc1` (stereo partly drawn) gave a logIC50 on Acetylcholinesterase [1] of 3.31.

`CNC(=O)Oc1ccc2c(c1)[C@]1(C)CCN(C)[C@@H]1N2C=O`: at Acetylcholinesterase [2], it took 2500 nM to reach half-maximal inhibition (IC50). Besides, the logIC50 on Acetylcholinesterase [1] came to 3.4.

The molecule `Cc1ccc(NC(=O)Oc2ccc3c(c2)[C@]2(C)CCN(C)[C@@H]2N3C)c(C)c1` displayed a logIC50 at Acetylcholinesterase [1] of 1.15.

As for `C[C@H](c1cccc(OC(=O)N(C)C)c1)N1CCCCC1`, the IC50 against Acetylcholinesterase [2] stood at 32 nM.

Molecule `Cc1ccccc1NC(=O)Oc1ccc2c(c1)[C@]1(C)CCN(C)C1N2Cc1ccccc1` (stereo partly drawn) came in with a logIC50 on Acetylcholinesterase [1] of 2.

`CNC(=O)Oc1ccc2c(c1)[C@@]1(C)CCN(C)C1N2Cc1ccccc1` (stereo partly drawn) gave a logIC50 on Acetylcholinesterase [1] of 3.45.

As to `Cc1cc(C)c(NC(=O)Oc2ccc3c(c2)[C@]2(C)CCN(C)[C@@H]2N3C)c(C)c1`, the logIC50 at Acetylcholinesterase [1] was 3.11.

Molecule `CC(C)c1ccc(NC(=O)Oc2ccc3c(c2)[C@]2(C)CCO[C@@H]2N3C)cc1` showed a logIC50 on Acetylcholinesterase [1] of 3.59.

For the molecule `CCNC(=O)Oc1ccc2c(c1)[C@]1(C)CCN(C)[C@@H]1N2C`, on Acetylcholinesterase [1], the logIC50 turned out to be 1.97.

`CC(C)c1ccc(NC(=O)Oc2ccc3c(c2)C2(C)COC(O3)O2)cc1` (stereo not drawn) registered an IC50 against Acetylcholinesterase [2] of 4300 nM. This molecule came in with a logIC50 at Acetylcholinesterase [1] of 3.63.

In turn, `CN1CC[C@@]2(C)c3cc(OC(=O)N4CCc5ccccc5C4)ccc3N(C)[C@@H]12` [QUILOSTIGMINE] came in with an IC50 against Acetylcholinesterase [2] of 148 nM.

In turn, `CNC(=O)Oc1ccc2c(c1)[C@]1(C)CCN(C)C1N2Cc1ccccc1` (stereo partly drawn) returned a logIC50 on Acetylcholinesterase [1] of 2.21.

`CNC(=O)Oc1ccc2c(c1)[C@]1(C)CCN(Cc3ccccc3)[C@@H]1N2Cc1ccccc1` came in with an IC50 against Acetylcholinesterase [2] of 3560 nM. Also, the logIC50 on Acetylcholinesterase [1] was determined as 3.55.

`CN1CC[C@@]2(C)c3cc(OC(=O)Nc4ccccc4)ccc3N(Cc3ccccc3)[C@@H]12`: the half-maximal inhibitory concentration (IC50) on Acetylcholinesterase [2] was 245 nM. In addition, the logIC50 at Acetylcholinesterase [1] worked out at 2.39.

As to `CNC(=O)Oc1ccc2c(c1)[C@]1(C)CCO[C@@H]1N2C`, the logIC50 on Acetylcholinesterase [1] was determined as 1.43.

Turning to `Cc1ccccc1NC(=O)Oc1ccc2c(c1)[C@]1(C)CCNC1N2C` (stereo partly drawn), the logIC50 at Acetylcholinesterase [1] was 1.23.

As for `Cc1cccc(NC(=O)Oc2ccc3c(c2)[C@]2(C)CCN(C)[C@@H]2N3C)c1C`, the logIC50 on Acetylcholinesterase [1] turned out to be 1.36.

On Acetylcholinesterase [2], `CNC(=O)Oc1ccc2c(c1)[C@]1(C)CCN(C)[C@@H]1N2Cc1ccccc1` yielded an IC50 of 161 nM. In addition, the logIC50 at Acetylcholinesterase [1] was determined as 2.21.

Consider `CN1CC[C@]2(C)c3cc(OC(=O)Nc4ccccc4)ccc3N(Cc3ccccc3)C12` (stereo partly drawn), for which, on Acetylcholinesterase [1], the logIC50 came to 4.05.

As for `CN(C(=O)Oc1ccc2c(c1)[C@]1(C)CCN(C)[C@@H]1N2C)c1ccccc1`, the IC50 against Acetylcholinesterase [2] is 285 nM. The molecule further showed a logIC50 at Acetylcholinesterase [1] of 2.46.

`Cc1ccc(C)c(NC(=O)Oc2ccc3c(c2)[C@]2(C)CCN(C)[C@@H]2N3C)c1`: the logIC50 on Acetylcholinesterase [1] was found to be 1.42.

The molecule `Cc1cccc(C)c1NC(=O)Oc1ccc2c(c1)[C@]1(C)CCN(C)[C@@H]1N2C` showed a logIC50 on Acetylcholinesterase [1] of 2.89.

As for `Cc1ccccc1NC(=O)Oc1ccc2c(c1)[C@]1(C)CCO[C@@H]1N2C`, on Acetylcholinesterase [1], the logIC50 amounted to 1.11.

Turning to `CCNC(=O)Oc1ccc2c(c1)C1(C)COC(O2)O1` (stereo not drawn), the midpoint of inhibition at Acetylcholinesterase [2], the IC50, lay at 387 nM. Further, the logIC50 at Acetylcholinesterase [1] was found to be 2.59.

`CC(C)c1ccc(NC(=O)Oc2ccc3c(c2)[C@]2(C)CCN(C)C2N3Cc2ccccc2)cc1` (stereo partly drawn) gave a logIC50 on Acetylcholinesterase [1] of 4.11.

In turn, `CCNC(=O)Oc1ccc2c(c1)[C@]1(C)CCO[C@@H]1N2C` returned a logIC50 at Acetylcholinesterase [1] of 1.91.

As for `CCOC(=O)C1=CN(C)c2cccc(OC(=O)N(C)C)c2C1`, on Acetylcholinesterase [2], the IC50 was 7 nM.

Take `C[C@@]12CCN(Cc3ccccc3)[C@@H]1N(Cc1ccccc1)c1ccc(OC(=O)Nc3ccccc3)cc12`: the IC50 on Acetylcholinesterase [2] was 41100 nM. The same molecule yielded a logIC50 at Acetylcholinesterase [1] of 4.61.

With `CCNC(=O)Oc1ccc2c(c1)C1(C)COC(C1)O2` (stereo not drawn), at Acetylcholinesterase [1], the logIC50 is 2.56.

Molecule `CNC(=O)Oc1ccc2c(c1)[C@@]1(C)CCN(C)C1N2` (stereo partly drawn) yielded a logIC50 on Acetylcholinesterase [1] of 1.75.

On Acetylcholinesterase [1], `CN1CC[C@]2(C)c3cc(OC(=O)Nc4ccccc4)ccc3NC12` (stereo partly drawn) had a logIC50 of 3.75.

As to `CN(C)Cc1cc2c(cc1OC(=O)Nc1ccccc1)[C@]1(C)CCN(C)[C@@H]1N2C`, at Acetylcholinesterase [2], the IC50 came out at 780 nM. Further, the logIC50 at Acetylcholinesterase [1] amounted to 2.89.

On Acetylcholinesterase [1], `CNC(=O)Oc1ccc2c(c1)[C@]1(C)CCN(Cc3ccccc3)C1N2Cc1ccccc1` (stereo partly drawn) showed a logIC50 of 3.04.

At Acetylcholinesterase [1], `CCc1ccccc1NC(=O)Oc1ccc2c(c1)[C@]1(C)CCN(C)[C@@H]1N2C` yielded a logIC50 of 1.

In turn, `Cc1ccc(NC(=O)Oc2ccc3c(c2)[C@]2(C)CCN(C)[C@@H]2N3C)cc1C` displayed a logIC50 at Acetylcholinesterase [1] of 1.49.

On Acetylcholinesterase [2], `CCc1cccc(CC)c1NC(=O)Oc1ccc2c(c1)[C@]1(C)CCN(C)[C@@H]1N2C` showed a concentration for half-maximal inhibition (IC50) of 690 nM. For the same molecule, at Acetylcholinesterase [1], the logIC50 is 2.84.

In the case of `C[C@]12CCNC1Nc1ccc(OC(=O)Nc3ccccc3)cc12` (stereo partly drawn), the logIC50 at Acetylcholinesterase [1] came to 2.36.

Take `Cc1cc2c(cc1OC(=O)Nc1ccccc1)[C@]1(C)CCN(C)[C@@H]1N2C`: on Acetylcholinesterase [1], the logIC50 was 2.41.

As for `Cc1ccc(NC(=O)Oc2ccc3c(c2)[C@]2(C)CCN(C)[C@@H]2N3C)cc1`, the logIC50 at Acetylcholinesterase [1] came out at 2.15.
